These results are taken from publication PMC5374412, “Development of Pharmacophore Model for Indeno[1,2-b]indoles as Human Protein Kinase CK2 Inhibitors and Database Mining” (Pharmaceuticals, 2017).

In this experiment the target is T1, human protein kinase CK2 (holoenzyme) (Homo sapiens, UniProt P68400).
T1 construct: gene CSNK2A1; CK2 holoenzyme, recombinant, expressed in E. coli; with CK2 regulatory subunit beta (CSNK2B), as part of the holoenzyme
Description: capillary electrophoresis-based kinase activity assay, peptide substrate RRRDDDSDDD
The format is biochemical.

T1 sequence (P68400 whole entry): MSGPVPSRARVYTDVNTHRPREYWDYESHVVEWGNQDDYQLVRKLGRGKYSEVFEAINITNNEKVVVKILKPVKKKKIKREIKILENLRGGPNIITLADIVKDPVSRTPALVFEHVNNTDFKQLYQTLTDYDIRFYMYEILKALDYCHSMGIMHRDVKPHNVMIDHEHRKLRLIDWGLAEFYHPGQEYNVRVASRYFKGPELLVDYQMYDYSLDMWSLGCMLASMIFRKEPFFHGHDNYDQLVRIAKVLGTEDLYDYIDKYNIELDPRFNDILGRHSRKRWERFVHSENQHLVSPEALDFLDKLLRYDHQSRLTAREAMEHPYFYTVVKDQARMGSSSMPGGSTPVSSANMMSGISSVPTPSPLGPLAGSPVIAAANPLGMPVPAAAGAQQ
T1 sequence (P67870 2-215 partner): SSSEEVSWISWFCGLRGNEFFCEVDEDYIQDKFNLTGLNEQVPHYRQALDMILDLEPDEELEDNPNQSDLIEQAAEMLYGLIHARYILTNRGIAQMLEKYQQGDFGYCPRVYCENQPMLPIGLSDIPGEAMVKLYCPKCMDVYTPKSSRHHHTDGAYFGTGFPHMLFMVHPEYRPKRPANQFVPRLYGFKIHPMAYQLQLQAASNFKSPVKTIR

As to `COC1=CC(=O)c2c(c(O)c3oc4cc(OC)cc(C)c4c(=O)c3c2O)C1=O` [ZINC05765165, 6,11-dihydroxy-3,8-dimethoxy-1-methylbenzo[b]xanthene-7,10,12-trione], the IC50 worked out at 1.24 µM. In other words, the single-digit micromolar range.
